Assay results published in ChEMBL document CHEMBL2062496, “Identification of a sirtuin 3 inhibitor that displays selectivity over sirtuin 1 and 2” (Eur J Med Chem, 2012).

Tests used:
EKVX = assay: Growth inhibition of human EKVX cells assessed as cell growth at 10 uM after 48 hrs by MTT assay; values are per cent of control
HCT-15 = assay: Growth inhibition of human HCT15 cells assessed as cell growth at 10 uM after 48 hrs by MTT assay; values are per cent of control; conditions: HCT-15, 48 h
MDA-MB-231 = assay: Growth inhibition of human MDA-MB-231 cells assessed as cell growth at 10 uM after 48 hrs by MTT assay; values are per cent of control; conditions: MDA-MB-231, 48 h
DU-145 = assay: Growth inhibition of human DU145 cells assessed as cell growth at 10 uM after 48 hrs by MTT assay; values are per cent of control; conditions: DU-145, 48 h
PC-3 = assay: Growth inhibition of human PC3 cells assessed as cell growth at 10 uM after 48 hrs by MTT assay; values are per cent of control; conditions: PC-3, 48 h

c1cncc(-c2cnn[nH]2)c1
growth, % of control at 10 µM (EKVX): 76.4%
growth, % of control at 10 µM (HCT-15): 69.2%
growth, % of control at 10 µM (MDA-MB-231): 103%
growth, % of control at 10 µM (DU-145): 96.3%
growth, % of control at 10 µM (PC-3): 88.5%
